Laboratory results published in ChEMBL document CHEMBL5620419, “Discovery of new Lenalidomide derivatives as potent and selective GSPT1 degraders” (Eur J Med Chem, 2023).

Target: Protein cereblon/Eukaryotic peptide chain release factor GTP-binding subunit ERF3A (Homo sapiens, UniProt P15170+Q96SW2)
Assay: PROTAC activity at CRBN/GSPT1 in human U-937 cells assessed as degradation of GSPT1 measured after 6 hrs by Western blot analysis
Type: cell-based

Sequence of Protein cereblon/Eukaryotic peptide chain release factor GTP-binding subunit ERF3A (Q96SW2 whole entry): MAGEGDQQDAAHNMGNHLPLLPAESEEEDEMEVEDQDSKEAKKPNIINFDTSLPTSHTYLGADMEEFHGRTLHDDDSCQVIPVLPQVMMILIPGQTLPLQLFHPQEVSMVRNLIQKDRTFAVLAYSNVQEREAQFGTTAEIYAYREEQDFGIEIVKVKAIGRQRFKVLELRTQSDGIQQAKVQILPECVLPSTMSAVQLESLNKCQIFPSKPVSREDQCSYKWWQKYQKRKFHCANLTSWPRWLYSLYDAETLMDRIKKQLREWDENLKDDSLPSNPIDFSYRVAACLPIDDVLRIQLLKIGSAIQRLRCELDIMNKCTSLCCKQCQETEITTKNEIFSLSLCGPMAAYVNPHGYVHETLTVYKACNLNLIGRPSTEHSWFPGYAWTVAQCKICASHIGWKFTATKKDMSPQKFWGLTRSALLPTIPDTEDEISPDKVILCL
Sequence of Protein cereblon/Eukaryotic peptide chain release factor GTP-binding subunit ERF3A (P15170 whole entry): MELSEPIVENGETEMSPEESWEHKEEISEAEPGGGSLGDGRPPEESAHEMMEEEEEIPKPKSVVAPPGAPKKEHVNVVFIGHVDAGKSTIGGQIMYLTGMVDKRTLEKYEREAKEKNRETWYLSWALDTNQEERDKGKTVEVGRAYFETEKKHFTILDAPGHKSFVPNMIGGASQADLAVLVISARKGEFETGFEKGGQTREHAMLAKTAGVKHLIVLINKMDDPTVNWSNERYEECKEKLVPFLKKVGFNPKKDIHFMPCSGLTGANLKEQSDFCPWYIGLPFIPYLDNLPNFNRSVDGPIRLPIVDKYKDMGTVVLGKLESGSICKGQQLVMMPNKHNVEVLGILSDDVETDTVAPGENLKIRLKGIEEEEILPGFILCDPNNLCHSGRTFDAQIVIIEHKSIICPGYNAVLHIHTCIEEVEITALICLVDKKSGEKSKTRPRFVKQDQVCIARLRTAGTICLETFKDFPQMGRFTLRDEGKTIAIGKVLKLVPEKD

Cc1ccc(NC(=O)/C=C/c2ccc3c(c2)C(=O)N(C2CCC(=O)NC2=O)C3)cc1Cl (stereo unspecified)
EC50: > 10 µM
